Test results taken from PMC10875103, “Selective synthesis of rebaudioside M2 through structure-guided engineering of glycosyltransferase UGT94D1” (Frontiers in Bioengineering and Biotechnology, 2024).

Biological target: T1, UGT94D1 (Sesamum indicum, UniProt A0A6I9T8N3, F119I/D188P)
T1 construct: gene LOC105161042; full ORF, synthetic codon-optimised gene; Ni-NTA purified and desalted
Test: UPLC glucosylation assay, […] h turnover
Type: biochemical
Details: 0.5 mM Reb D, 5 mM UDPG, 10 mM MnCl2, 50 mM Tris-HCl pH 8.0, 35 °C

T1 sequence (A0A6I9T8N3 entry or part of it F119I/D188P): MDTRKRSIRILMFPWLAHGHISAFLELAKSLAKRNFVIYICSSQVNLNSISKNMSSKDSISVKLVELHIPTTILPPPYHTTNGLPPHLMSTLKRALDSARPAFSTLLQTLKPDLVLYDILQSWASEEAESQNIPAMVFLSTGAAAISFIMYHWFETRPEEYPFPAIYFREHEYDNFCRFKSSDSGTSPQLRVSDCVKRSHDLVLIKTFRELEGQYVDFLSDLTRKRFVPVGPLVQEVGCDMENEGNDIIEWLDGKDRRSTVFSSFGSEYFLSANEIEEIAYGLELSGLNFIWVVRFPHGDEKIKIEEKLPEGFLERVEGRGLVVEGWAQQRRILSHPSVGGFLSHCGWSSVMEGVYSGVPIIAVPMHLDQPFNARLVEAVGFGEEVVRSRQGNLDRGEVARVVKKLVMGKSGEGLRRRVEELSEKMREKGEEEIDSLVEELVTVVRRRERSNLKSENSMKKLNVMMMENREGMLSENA

## C=C1C[C@@]23CC[C@H]4[C@@](C)(CCC[C@@]4(C)C(=O)O[C@@H]4O[C@H](CO)[C@@H](O)[C@H](O)[C@H]4O[C@@H]4O[C@H](CO)[C@@H](O)[C@H](O)[C@H]4O)[C@@H]2CC[C@]1(O[C@@H]1O[C@H](CO)[C@@H](O)[C@H](O[C@@H]2O[C@H](CO)[C@@H](O)[C@H](O)[C@H]2O)[C@H]1O[C@@H]1O[C@H](CO)[C@@H](O)[C@H](O)[C@H]1O)C3 [rebaudioside D]
  relative activity: catalytic activities of mutants F119I/D188P and F119P/D188P were further improved
